Reference: publication PMC12285096, “Tirzepatide mitigates Stroke-Induced Blood-Brain barrier disruption by modulating Claudin-1 and C/EBP-α pathways” (Molecular Medicine, 2025)

Experiments:
[1] = tested on: blood-brain barrier of MCAO mice; test: BBB permeability assay, 14C-sucrose influx in mice; type: in vivo, mouse; settings: for BBB permeability (14C-sucrose), relative to Sham = 100: C/EBP-α experiment, MCAO 272.1%, Fig. 5B; for 14C-sucrose influx rate (Ki), right cerebral hemisphere: n = 6, mean ± SD
Excerpt: To evaluate the therapeutic function of TZP against IS, four groups were divided: Sham, TZP, MCAO, and MCAO + TZP groups. In the Sham and MCAO groups, normal saline was intraperitoneally administered to sham-operated and MCAO-operated wide-type (WT) mice once a week for 8 weeks, respectively. In the TZP and MCAO + TZP groups, sham-operated and MCAO-operated WT mice were intraperitoneally administered with 10 nmol/kg TZP once a week for 8 weeks, respectively. To confirm the involvement of C/EBPα in the function of TZP, four groups were divided: Sham, MCAO, MCAO + TZP, and MCAO + C/EBP-α-/- + TZP. Administrations in the Sham, MCAO, and MCAO + TZP groups were described above. MCAO-operated C/EBP-α-/- mice in the MCAO + C/EBP-α-/- + TZP group received an intraperitoneal injection of 10 nmol/kg TZP every week for eight weeks. ^14C-sucrose (1 µCi, i.v.) was administered, and brain uptake was measured after 10 min. The influx rate (Ki, µL/g/min) was calculated as [^14C-sucrose]brain (dpm/g)/[^14C-sucrose]plasma (dpm/mL) × time (min).

in vivo = settings: mouse, ip, 10 nmol/kg
Protocol: TZP concentrations were measured in plasma and brain from Sham, TZP, MCAO, and MCAO + TZP groups (n = 6 per group) after 8 weeks of treatment (TZP: 10 nmol/kg, saline: 0.1 mL, i.p., weekly). At 24 h post-final dose, mice were anesthetized (xylazine 8 mg/kg, ketamine 140 mg/kg, i.p.). Plasma was collected via cardiac puncture (0.5 mL, heparinized tubes) and centrifuged (3,000 × g, 10 min, 4 °C). The right cerebral hemisphere was harvested, rinsed in cold saline, weighed, and homogenized in 1 mL PBS with 1% protease inhibitor. Homogenates were centrifuged (10,000 × g, 15 min, 4 °C). TZP was quantified by LC-MS/MS using a Shimadzu LC-20AD system and AB Sciex QTRAP 5500. Samples were diluted 1:10 in acetonitrile with internal standard (semaglutide-d6, 10 ng/mL), separated on a C18 column (2.1 × 100 mm, 1.8 μm), and detected via multiple reaction monitoring (MRM). Calibration curves (0.1–100 ng/mL, r² > 0.99) ensured linearity. Kp, brain was calculated as [TZP]brain (ng/mL, converted from ng/g)/[TZP]plasma (ng/mL). Sham and MCAO groups (no TZP) served as controls. Liraglutide’s Kp, brain was cited from the literature (Rhea et al. [2024]).

C/EBP-α = C/EBP-α expression in mouse cortex (RT-PCR, western blot); type: in vivo; settings: Fig. 4A, B
Protocol: 1 mL of RNAiso Plus solution was added to the pulverized rodent cerebral cortex samples or cellular material. Following complete homogenization, the liquid fraction was extracted after high-speed centrifugation. The overall RNA pellet was then washed with 75% ethanol, and the RNA was subsequently harvested for reverse transcription. These specific procedures were carried out in accordance with the instructions provided in the PrimeScript RT reagent Kit (TaKaRa, Japan). Real-time PCR detection was performed following the experimental protocols of the Applied Biosystems 7300 instrument. Gene expression levels were determined based on cycle threshold counts.
Claudin-1 and C/EBP-α were analyzed in brain homogenates (right hemisphere: Sham, MCAO, MCAO + TZP) and HBMVECs (Control, OGD/R, OGD/R + TZP). A lysis solution, composed of 1% protease inhibitor in RIPA buffer (Sigma-Aldrich, R0278), was introduced to samples, which were homogenized over ice for 30 min. The homogenate was centrifuged at 13,500 rpm for 10 min at 4 °C. Protein was quantified using the BCA assay kit (Sigma-Aldrich, BCA1), and 50 µg protein/lane was separated on 10% SDS-PAGE and transferred to PVDF in electrophoresis buffer at 200 mA for 2 h. The membrane was blocked with 5% skim milk in TBST for 1 h. […] Bands were detected via ECL (Bio-Rad, 1705061), quantified with ImageJ, and normalized to GAPDH.

HBMVECs = test: TEER of OGD/R-challenged HBMVECs; type: cell-based, human
Protocol: HBMVECs were sourced from ATCC (USA). These cells were cultivated in a medium specifically designed for endothelial cultures, enriched with 10% FBS, and maintained in an incubator set at a temperature of 37 °C with 5% CO2. For OGD/R modeling, the culture medium was replaced with a serum-free, glucose-free medium, and then it was placed in a hypoxic environment (1% O2, 5% CO2, 94% N2) at a 37 °C incubator for 10 h. After 10 h, the normal medium containing serum was added, and the normal oxygen supply was restored. The cells were then kept in a 37 °C constant temperature incubator for 24 h of reoxygenation. To silence C/EBP-α, HBMVECs were transduced with adenovirus harboring a short hairpin RNA (shRNA) specifically designed to knock down C/EBP-α (Ad-viral sh-C/EBP-α) for 48 h. Approximately 100,000 cells were nurtured in the upper section of the Transwell device. Once the cells had bonded to the container surfaces, TEER values across each group were determined utilizing an impedance meter (Millipore, United States) after 24 h.

## CC[C@H](C)[C@H](NC(=O)[C@H](CC(C)C)NC(=O)[C@H](Cc1c[nH]c2ccccc12)NC(=O)[C@H](CCC(N)=O)NC(=O)[C@@H](NC(=O)[C@H](Cc1ccccc1)NC(=O)[C@H](C)NC(=O)[C@H](CCCCNC(=O)COCCOCCNC(=O)COCCOCCNC(=O)CC[C@H](NC(=O)CCCCCCCCCCCCCCCCCCC(=O)O)C(=O)O)NC(=O)[C@H](CCC(N)=O)NC(=O)[C@H](C)NC(=O)[C@@H](NC(=O)[C@H](CCCCN)NC(=O)[C@H](CC(=O)O)NC(=O)[C@H](CC(C)C)NC(=O)C(C)(C)NC(=O)[C@@H](NC(=O)[C@H](CO)NC(=O)[C@H](Cc1ccc(O)cc1)NC(=O)[C@H](CC(=O)O)NC(=O)[C@H](CO)NC(=O)[C@@H](NC(=O)[C@H](Cc1ccccc1)NC(=O)[C@@H](NC(=O)CNC(=O)[C@H](CCC(=O)O)NC(=O)C(C)(C)NC(=O)[C@@H](N)Cc1ccc(O)cc1)[C@@H](C)O)[C@@H](C)O)[C@@H](C)CC)[C@@H](C)CC)C(C)C)C(=O)N[C@@H](C)C(=O)NCC(=O)NCC(=O)N1CCC[C@H]1C(=O)N[C@@H](CO)C(=O)N[C@@H](CO)C(=O)NCC(=O)N[C@@H](C)C(=O)N1CCC[C@H]1C(=O)N1CCC[C@H]1C(=O)N1CCC[C@H]1C(=O)N[C@@H](CO)C(N)=O [TZP, Tirzepatide]
[1]; MCAO + TZP, WT mice
  BBB permeability (14C-sucrose), relative to Sham = 100: 141.9%
[1]; TZP-treated MCAO C/EBP-α-/- mice
  BBB permeability (14C-sucrose), relative to Sham = 100: 205.7%
[1]; MCAO + TZP group (10 nmol/kg i.p. weekly, 8 weeks), MCAO 2.582 ± 0.156, P < 0.005 vs. MCAO
  14C-sucrose influx rate (Ki), right cerebral hemisphere: 1.447 ± 0.103 µL/g/min
[1]; TZP group (sham-operated, 10 nmol/kg i.p. weekly, 8 weeks), Sham 1.00 ± 0.028, P = 0.89 vs. Sham
  14C-sucrose influx rate (Ki), right cerebral hemisphere: 0.995 ± 0.032 µL/g/min
In vivo; Brain concentration of TZP
  tissue level at time at 24 h: 9.6 ± 1.2 ng/g
In vivo; Plasma concentration of TZP
  level at 24 h: 80.2 ± 10.1 ng/mL
C/EBP-α; MCAO + TZP vs. MCAO (markedly decreased), 10 nmol/kg i.p. weekly, 8 weeks
  C/EBP-α levels in cortex tissues (mRNA, protein): largely enhanced
C/EBP-α; TZP group (sham-operated, 10 nmol/kg i.p. weekly, 8 weeks) vs. Sham
  C/EBP-α levels in cortex tissues (mRNA, protein): notably elevated
HBMVECs; OGD/R + 50 nM TZP, 24 h, control 191.3, OGD/R 115.3, Fig. 6B
  TEER values: 145.3 Ω.cm²
HBMVECs; OGD/R + 100 nM TZP, 24 h, control 191.3, OGD/R 115.3, Fig. 6B
  TEER values: 172.9 Ω.cm²
HBMVECs; sh-C/EBP-α experiment, OGD/R + TZP (100 nM), control 187.4, OGD/R 113.5, Fig. 9C
  TEER values: 175.6 Ω.cm²
HBMVECs; sh-C/EBP-α experiment, OGD/R + sh-C/EBP-α + TZP (100 nM), control 187.4, OGD/R 113.5, Fig. 9C
  TEER values: 138.2 Ω.cm²
